This is an account of results in ChEMBL document CHEMBL4613222 (Bioorg Med Chem, 2020).

Calls of active or inactive are those of the source. No cut-off for these calls is given here.

Assay [1] relates to HCT-116. Put plainly: Antiproliferative activity against human HCT116 cells assessed as reduction in cell viability after 48 hrs by MTT assay. The assay is classed as functional, cell-based. Conditions: HCT-116, 48 h. (Tetrazolium dyes change colour on reduction, which living cells bring about.)
Assay [2] concerns HCT-116. Nature of the assay: Down regulation of NFKappaB1 gene expression in human HCT116 cells at 9.5 uM by RT-PCR analysis relative to control. The format is functional.
The test system of assay [3] is HCT-116. Nature of the assay: Down regulation of NFKappaB1 gene expression in human HCT116 cells at 35 uM under 2 Gy irradiation by RT-PCR analysis. The format is functional, cell-based.
Assay [4] deals with HCT-116. Put plainly: Radiosensitizer activity in human HCT116 cells assessed as reduction in cell survival at 4.75 uM incubated for 48 hrs under 2 to 6 Gy irradiation and measured after 7 days by crystal violet staining based by clonogenic assay. The assay is classed as functional.
Assay [5] deals with HCT-116. Put plainly: Effect on CCND1 gene expression in human HCT116 cells at 9.5 uM in presence of 2 Gy irradiation by RT-PCR analysis. The format is functional, cell-based.
Assay [6] has as its system HCT-116. Put plainly: Down regulation of CCND1 gene expression in human HCT116 cells at 9.5 uM in presence of 2 Gy irradiation by RT-PCR analysis. The assay is classed as functional, cell-based.

Usually IC50 stands for the concentration at which inhibition is half-maximal. Regarding `C[C@H]1[C@H](C)CC[C@]2(C(=O)O)CC[C@]3(C)C(=CC[C@@H]4[C@@]5(C)CC[C@H](O)C(C)(C)[C@@H]5CC[C@]43C)[C@H]12` [URSOLIC ACID], the IC50 in assay [1] stood at 19 µM. The “fold change (FC)” value in assay [2] is -7.05. Moreover, the result in assay [3], in assay [4] and in assay [6] was Active. Also, the outcome in assay [5] was inactive.
